The values that follow come from patent US20240100164A1, “REPEATED PHOTODYNAMIC THERAPY USING PHOTOSENSITIZING AGENT” (Incando Therapeutics Pte. Ltd., priority 2022, published 2024).

One data set deals with glioma cells. As to the kind of experiment: In vitro 3D hydrogel culture, PDT induced cell death of glioma cells. The note with it: glioma cells in 3D-hydrogel incubated with 5-ALA, illuminated with LED at 630 nm. Type of data set: cell-based. An excerpt:
An in vitro model of light penetration into tissue was established to determine the quantitative relationship between light penetrance PDT instigated cell death. The primary parameters for light input are illumination intensity and duration of illumination. The primary parameter for PDT instigated cell death is depth (or distance from the light source to the target treatment tissue), which directly attenuates light penetration into tissue.
To evaluate PDT for treatment of gliomas and brain cancers glioma cells were propagated in a hydrogel medium in a three-dimensional (3D) culture to mimic the cellular and optical environment of the brain. A commercial 3D culture system was used to set up the culture in a linear configuration such that a point source of light could be applied to one end of a closed culture in a cylinder form. The total cellular growth volume was 1 mm×1 mm×15 mm. A 630 nm LED light source that mimics the spectral characteristics and intensity of the any of the implantable devices disclosed herein was used to illuminate embedded glioma cells and to establish the effective PDT “kill radius.”
FIGS. 9A-9B show PDT induced cell death of glioma cells using a LED light source such as any of those disclosed herein. Glioma cells were embedded in a 3D-hydrogel, incubated with study drug 5-ALA, and illuminated with a light from a LED at 630 nm as shown in FIG. 9A. […]

For data set [1], the system named is C6 glioma. Kind of data set: Orthotopic C6 glioma xenograft, 5-ALA uptake and conversion to PPIX in tumor. The note with it: C6 tumor in rat striatum, histology. Type of data set: in vivo, Sprague Dawley rat. Here is the method: C6 rat glioma cells were maintained in F12K medium (F-12K Nutrient Mixture, 1X, Gibco) supplemented with […] (Biowest), […] (Gibco), and 1% each of P/S and L/G antibiotics (Biowest) at 37° C. in a humidified incubator containing 5% CO2. Subconfluent, low passage C6 glioma cells were resuspended to single cell suspension in sterile PBS (1X, Hyclone) within two hours of xenotransplantation.
Approximately 2×10^5 cells were stereotactically injected into the striatum of rats (230-270 g, InVivos Pte Ltd) under general anaesthesia. Using a hand-held drill, a burr hole of 1 mm was drilled and cells were injected unilaterally at 3 mm lateral to Bregma and at a depth of 4 mm. Injections were conducted using borosilicate capillary glass micropipettes (A-M Systems) pulled to a tip diameter of ˜[…]. Animals were allowed to recover with daily antibiotics and analgesics for up to a week and monitored post operatively for adverse events and signs of distress in compliance with relevant animal treatment guidelines.
FIG. 10 illustrates an orthotopic xenograft model. Rat C6 glioma cells are implanted unilaterally into the striatum of Sprague Dawley rats. Tumor engraftment and growth was rapid and morphology is consistent with human high grade gliomas.

Data set [2] concerns C6 glioma. As to the kind of experiment: Single application of PDT in orthotopic C6 glioma model (Ki67, TUNEL histology). It counts as in vivo, Sprague Dawley rat. Here is the method: (§1) The implants were secured in place by suturing the overlying skin to close the surgical site. Device operation was tested briefly before closure. Six hours prior to each PDT treatment, rats were injected with 100 mg/kg 5-ALA (Synchem UG & Co. KG) prepared in sterile PBS (1X, Hyclone) via tail vein or with a vehicle control. PDT treatment was conducted under 1.5-2.5% […] isoflurane/O2 general anesthesia. Wireless powering coils such as those disclosed herein were secured to each animal's head, and each PDT treatment delivered 2.5 mW/cm2 of light over 3,600 seconds for a total fluence of 9 J/cm^2 per treatment. Any of the other treatment parameters disclosed herein may be used.
Test animals were sacrificed after 24 hours, and their brains were sectioned for histological examination. The proliferation marker Ki67 and the TUNEL assay (terminal deoxynucleotidyl transferase dUTP nick end labeling) indicative of apoptosis was used to quantify the PDT effect.
Test animals were sacrificed after 24 hours, and their brains were sectioned for histological examination. The proliferation marker Ki67 and the TUNEL assay indicative of apoptosis was used to quantify the PDT effect.

The subject of data set [3] is C6 glioma. Kind of data set: Single vs. repeated PDT (rePDT) in orthotopic C6 glioma model, survival and tumor size. It counts as in vivo, Sprague Dawley rat.
Excerpt: Animals were monitored daily for weight change and behavioral abnormalities ahead of xenograft induced mortality. Ethical termination via CO2 overdose was triggered in the following events: individual weight loss of greater than 20% in one day, extended cessation of motor behavior and loss of grooming; paralysis and lack of movement/lying on a side. After termination or death, individual rat brains were dissected and prepared for histological analysis by freezing in OCT compound (Tissue-Tek). Survival analysis was performed via the method of Kaplan-Meier.
as §1
Further experimentation was conducted to determine if repeated application of PDT treatment would have a cumulative effect on tumor growth and disease progression. […] If a single PDT treatment was at least 50% effective in destroying the tumor population, an inter-treatment interval of 2 days would maintain or diminish the tumor graft to at, or near starting levels. With this rationale in mind, PDT treatment was applied according to the schema shown in FIG. 12A with four treatments repeated every two days starting at day 4 after xenograft surgery.
On the day of treatment, animals received 5-ALA via tail vein injection and allowed to recover for 6 hours to allow uptake and expression of PPIX. PDT treatment was conducted under light general anaesthesia via halothane to reduce movement during PDT. […] This procedure was repeated at 2-day intervals for a total of four treatments.
FIG. 13 also illustrates survival curves for single vs repeat PDT treated animals. Sprague Dawley rats were implanted with c6 glioma cells and implanted with a wirelessly powered light source above the injection site as described. On treatment days (days 4, 6, 8, 10), animals were given the study drug 5-ALA as described and received PDT treatment. […] In contrast, 7 of 8 cohort 2 animals, which received PDT treatment on days 4, 6, 8, and 10, survived to day 70 at which point the experiment was stopped. Therefore, rePDT kills more of the tumor compared with a single treatment of PDT and increases survival time of the rodents.

For data set [4] the following is noted: in vivo; cited from earlier work.

“And” between values parts separate entries of the source, which are not always exact repeats. Identical values can stand only once. Some results are limits rather than exact numbers.

On to `Cl.NCC(=O)CCC(=O)O` [5-ALA, 5-amino-4-oxo-pentanoic acid hydrochloride], for which, in the data set on glioma cells, the “effective "kill zone" (distance from the light source)” value is recorded as 6-8 mm. Moreover, in the data set with C6 glioma [1], the “PPIX signal in the tumor (conversion of 5-ALA to PPIX)” value is “Strong PPIX signal” and the “tumor uptake of photosensitizer” value is reported as “takes up the photosensitizer drug 5-ALA”. In the data set on C6 glioma [2] (100 mg/kg 5-ALA tail vein 6 h before wirelessly powered light, 9 J/cm^2, sacrificed after 24 hours), the “PDT effect (Ki67 and TUNEL)” value is “able to induce PDT”. Besides, the “PDT effect (Ki67 and TUNEL)” value in the data set on C6 glioma [2] (either component singly (5-ALA without light)) was “did not show the same effect”. Moreover, the “adverse effects after PDT treatment” value in the data set with C6 glioma [3] (5-ALA tail vein 6 hours before PDT under general anaesthesia, four treatments at 2-day intervals) is reported as “no adverse effects”. In addition, the mean survival in the data set on C6 glioma [3] (Cohort 1, PDT treatment only on day 4 (n=10)) is given as ~22 days. Also, the time of mortality in the data set on C6 glioma [3] (control animals (control treatment = single PDT session)) was 22 to 24 days. The tumor size in the data set on C6 glioma [3] (control animals (control treatment = single PDT session), necropsy) is 125-200 mm^3. Also, the median survival in the data set on C6 glioma [3] (control animals (n=10), Kaplan-Meier) was found to be 21 days. The “animals living at the end of the experiment” value in the data set on C6 glioma [3] (rePDT) was determined as 89%. Further, the “tumor cells by H&E staining” value in the data set with C6 glioma [3] (rePDT animals, histology) is listed as “trace amounts of tumor cells”. Also, in the data set with C6 glioma [3] (rePDT animals, histology, vs contralateral controls), the Ki67 level entry is given as “low levels of Ki67”. Moreover, the “reduction in the tumor volume” value in the data set with C6 glioma [3] (rePDT vs control animals, gross estimates) is reported as > 99.5%. In addition, the “animals living at the end of the experiment (day 70)” value with C6 glioma [3] (rePDT, PDT on days 4, 6, 8, 10, hydrochloride) was 8 out of 9 and 7 of 8. Also, the “survival (day of termination of experiment)” value in the data set on C6 glioma [3] (repeated PDT (rePDT), four treatments every two days from day 4) is ≥ 70 days.

Regarding `C=CC1=C(C)c2cc3[nH]c(cc4nc(cc5[nH]c(cc1n2)c(C)c5CCC(=O)O)C(CCC(=O)O)=C4C)c(C)c3C=C` [PPIX, Protoporphyrin IX], the “systemic clearance time of 5-ALA-induced PPIX” value in data set [4] was ≤ 24 h.
